Data: the Kinase Knowledgebase extract (Sharma et al. 2016)
pIC50: −log10 of the molar value.

target: EGFR (human) (UniProt P00533); conditions: a431
Sequence (P00533 whole entry, looked up): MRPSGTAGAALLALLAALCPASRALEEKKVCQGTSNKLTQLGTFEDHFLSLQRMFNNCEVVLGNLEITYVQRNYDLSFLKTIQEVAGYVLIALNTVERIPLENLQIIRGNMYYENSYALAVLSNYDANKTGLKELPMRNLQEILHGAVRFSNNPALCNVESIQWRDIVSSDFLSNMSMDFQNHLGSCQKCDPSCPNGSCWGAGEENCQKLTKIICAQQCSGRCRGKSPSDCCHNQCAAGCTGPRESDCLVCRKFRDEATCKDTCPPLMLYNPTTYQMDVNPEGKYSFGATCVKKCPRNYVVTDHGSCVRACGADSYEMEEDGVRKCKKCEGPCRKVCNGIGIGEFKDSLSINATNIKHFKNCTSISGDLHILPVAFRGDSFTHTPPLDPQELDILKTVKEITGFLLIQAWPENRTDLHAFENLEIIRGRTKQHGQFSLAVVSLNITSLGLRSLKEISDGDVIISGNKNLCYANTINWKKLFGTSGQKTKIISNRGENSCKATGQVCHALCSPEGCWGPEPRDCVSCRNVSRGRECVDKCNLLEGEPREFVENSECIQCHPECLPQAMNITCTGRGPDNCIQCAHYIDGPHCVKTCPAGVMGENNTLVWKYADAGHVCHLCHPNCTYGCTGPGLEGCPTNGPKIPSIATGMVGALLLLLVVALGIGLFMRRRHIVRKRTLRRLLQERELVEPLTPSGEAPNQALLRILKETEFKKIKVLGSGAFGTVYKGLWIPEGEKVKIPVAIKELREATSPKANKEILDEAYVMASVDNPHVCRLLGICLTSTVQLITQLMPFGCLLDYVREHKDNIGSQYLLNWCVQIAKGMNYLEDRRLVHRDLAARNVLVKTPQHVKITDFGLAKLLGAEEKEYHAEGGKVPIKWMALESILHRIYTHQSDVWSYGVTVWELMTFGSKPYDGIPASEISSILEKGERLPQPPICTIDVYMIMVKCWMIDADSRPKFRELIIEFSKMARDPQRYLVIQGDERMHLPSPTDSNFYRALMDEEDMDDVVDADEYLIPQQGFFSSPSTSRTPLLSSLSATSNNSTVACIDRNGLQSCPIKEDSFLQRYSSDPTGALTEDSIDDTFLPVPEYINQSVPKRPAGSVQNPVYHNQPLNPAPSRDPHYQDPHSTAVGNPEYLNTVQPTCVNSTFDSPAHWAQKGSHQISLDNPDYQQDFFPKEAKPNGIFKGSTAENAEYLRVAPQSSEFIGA

Compound | pIC50
c1ccc(-c2cnc3cc4ccccc4cc3n2)cc1 | < 4.00
Cc1cc2ncc(-c3ccccc3)nc2cc1C | < 4.00
COc1cc2ncc(-c3ccccc3)nc2cc1OC | < 4.00
Cc1nc2cc3ncc(-c4cccs4)nc3cc2n1C | < 4.52
Cc1nc2cc3ncc(-c4ccccc4)nc3cc2n1C | < 4.52
Cc1nc2cc3nc(-c4cccs4)cnc3cc2n1C | < 4.52

Further lines, results first:

pIC50 | Compound
< 4.52 | Cc1cc2ncc(-c3cccs3)nc2cc1C
< 4.52 | Cc1cc2ncc(-c3cc[cH-]c3)nc2cc1C.[Fe+2].c1cc[cH-]c1
< 4.52 | Cc1nc2cc3nc(-c4ccccc4)cnc3cc2n1C
< 4.52 | Cc1nc2cc3nc(-c4cc[cH-]c4)cnc3cc2n1C.[Fe+2].c1cc[cH-]c1
